Tests used:
[1] = DNP hyperpolarisation of acetic anhydride with Finlandic acid trityl radical, with or without gadolinium complex (solid state polarisation build up); assay type: physicochemical
Procedure: A stock solution of radical was prepared by dissolving Finlandic acid (2.7 mg, 2.6 μmol) in unlabeled acetic anhydride (22.2 mg) yielding a solution with a concentration of 105 μmol/g.

[2] = Dissolution and hydrolysis of hyperpolarised acetic anhydride, NMR time series of 1D spectra to follow signal decay; assay type: physicochemical
Procedure: A stock solution of radical was prepared by dissolving Finlandic acid (2.7 mg, 2.6 μmol) in unlabeled acetic anhydride (22.2 mg) yielding a solution with a concentration of 105 μmol/g. A part (2.1 mg) of this stock solution was mixed with 1,1′-^13C2 acetic anhydride (15 μl, 17.2 mg, 0.165 mmol) to make a 12.8 mM solution. […] The sample was dissolved in 5 ml water with added NaOH (12 M, 39 μl) and allowed to hydrolyze for 15 s and then neutralized by mixing with phosphate buffer (300 μl, 1M, pH 7.3) with addition of HCl (14 μl, 12M). The sample was transferred to an NMR spectrometer and the acquisition was started 30 s after the dissolution recording a time series of 1D spectra to follow signal decay.

[3] = 13C DNP, acetic anhydride/1,1'-13C2 acetic anhydride, Finlandic acid radical 12.5 mM, gadolinium complex added as labelled (none for acetic anhydride, Example 1), FIG. 1

Compound	exponential time constant of hyperpolarisation [1, 3] [s]	T1 of the hydrolysis product ([2]; after dissolution in water/NaOH, hydrolysis 15 s, neutralization to pH 6.8, acquisition started 30 s after dissolution) [s]	exponential time constant of hyperpolarisation ([1]; Example 5: 1,1'-13C2 acetic anhydride, Finlandic acid 12.8 mM, no gadolinium complex) [s]	hydrolysis of acetic anhydride at the start of the acquisition ([2]; 5 ml water with NaOH, 15 s hydrolysis, neutralized, acquisition 30 s after dissolution)
CC(O)CN1CCN(CC(=O)[O-])CCN(CC(=O)[O-])CCN(CC(=O)[O-])CC1.[Gd+3] (stereo not shown) [Gadolinium complex III, [10-(2-hydroxypropyl)-1,4,7,10-tetraazacyclododecane-1,4,7-triacetato(3-)]gadolinium, reference compound]	750	–	–	–
[[α1,α4,α7-tris[(phenylmethoxy)methyl]-1,4,7,10-tetraazacyclododecane-1,4,7,10-tetraacetato(4-)]gadolinate(1-)]hydrogen [Gadolinium complex I]	690	–	–	–
CC(=O)O [hydrolysis product, acetic acid]	–	45	–	–
CC(=O)OC(C)=O [acetic anhydride]	670	–	525	complete
CCCCCCCCCCCCCCCCCCN(CCCCCCCCCCCCCCCCCC)C(=O)CN1CCN(CC(=O)[O-])CCN(CC(=O)[O-])CCN(CC(=O)[O-])CC1.[Gd+3] [Gadolinium complex II, [10-[2-(dioctadecylamino)-2-oxoethyl]-1,4,7,10-tetraazacyclododecane-1,4,7-triacetato(3-)]gadolinium, reference compound]	690	–	–	–

Source: patent US9693828B2, “Composition comprising acetic anhydride and a gadolinium complex, and method for the use in hyperpolarisation in MRI analysis” (BRACCO IMAGING S.P.A., priority 2011, dated 2017)
